In ChEMBL document CHEMBL3885881, “DrugMatrix”:

Species on record: Rattus norvegicus
Experiment: DrugMatrix - Regimen: Daily Repeat
Assay type: toxicity, organism-based, Sprague-Dawley
Parameters: regimen Daily Repeat, gender Male, age 6-8 weeks
Conditions: in vivo, po, route oral GAVAGE, vehicle .5 % CMC; for BASOPHIL / EOSINOPHIL / ERYTHROCYTE COUNT / HEMATOCRIT / HEMOGLOBIN / LEUKOCYTE COUNT / LYMPHOCYTE / MEAN CORPUSCULAR HEMOGLOBIN / MEAN CORPUSCULAR HEMOGLOBIN CONCENTRATION / MEAN CORPUSCULAR VOLUME / MONOCYTE / NEUTROPHIL / PLATELET COUNT: tissue Blood; for ALANINE AMINOTRANSFERASE / ALBUMIN / ALKALINE PHOSPHATASE / ASPARTATE AMINOTRANSFERASE / BLOOD UREA NITROGEN / CHLORIDE / CHOLESTEROL / CREATINE PHOSPHOKINASE / CREATININE / GLUCOSE / PHOSPHORUS / POTASSIUM / SODIUM / TOTAL BILIRUBIN / TOTAL PROTEIN: tissue Plasma
[1] = 0 mg/kg, 72 h, dose level Control, time 3 day
[2] = 0 mg/kg, 120 h, dose level Control, time 5 day
[3] = 25 mg/kg, 72 h, dose level Low, time 3 day
[4] = 25 mg/kg, 120 h, dose level Low, time 5 day

## C=C(CC)C(=O)c1ccc(OCC(=O)O)c(Cl)c1Cl [ETHACRYNIC ACID]
[1]
  BASOPHIL: 0%
  EOSINOPHIL: 0%
  ERYTHROCYTE COUNT: 6.19 x10E6/uL
  HEMATOCRIT: 36.94%
  HEMOGLOBIN: 14.58 G/DL
  LEUKOCYTE COUNT: 11.54 x10E3/uL
  LYMPHOCYTE: 84.8%
  MEAN CORPUSCULAR HEMOGLOBIN: 23.58 pg
  MEAN CORPUSCULAR HEMOGLOBIN CONCENTRATION: 39.44 G/DL
  MEAN CORPUSCULAR VOLUME: 59.76 fL
  MONOCYTE: 1.4%
  NEUTROPHIL: 13.8%
  PLATELET COUNT: 1068.8 x10E3/uL
  ALANINE AMINOTRANSFERASE: 38.17 u/L
  ALBUMIN: 3.88 G/DL
  ALKALINE PHOSPHATASE: 391.33 u/L
  ASPARTATE AMINOTRANSFERASE: 69.83 u/L
  BLOOD UREA NITROGEN: 15 mg/dL
  CHLORIDE: 104.17 MEQ/L
  CHOLESTEROL: 72.17 mg/dL
  CREATINE PHOSPHOKINASE: 174.33 u/L
  CREATININE: 0.58 mg/dL
  GLUCOSE: 192.67 mg/dL
  PHOSPHORUS: 10.52 mg/dL
  POTASSIUM: 6.8 MEQ/L
  SODIUM: 149.67 MEQ/L
  TOTAL BILIRUBIN: 0.78 mg/dL
  TOTAL PROTEIN: 6.28 G/DL
[2]
  BASOPHIL: 0%
  EOSINOPHIL: 0.17%
  ERYTHROCYTE COUNT: 6.72 x10E6/uL
  HEMATOCRIT: 40.02%
  HEMOGLOBIN: 15.83 G/DL
  LEUKOCYTE COUNT: 9.5 x10E3/uL
  LYMPHOCYTE: 87.17%
  MEAN CORPUSCULAR HEMOGLOBIN: 23.57 pg
  MEAN CORPUSCULAR HEMOGLOBIN CONCENTRATION: 39.62 G/DL
  MEAN CORPUSCULAR VOLUME: 59.55 fL
  MONOCYTE: 1.67%
  NEUTROPHIL: 11%
  PLATELET COUNT: 1053.67 x10E3/uL
  ALANINE AMINOTRANSFERASE: 26.33 u/L
  ALBUMIN: 4.02 G/DL
  ALKALINE PHOSPHATASE: 316.67 u/L
  ASPARTATE AMINOTRANSFERASE: 61.33 u/L
  BLOOD UREA NITROGEN: 18.67 mg/dL
  CHLORIDE: 108 MEQ/L
  CHOLESTEROL: 65.17 mg/dL
  CREATINE PHOSPHOKINASE: 161.17 u/L
  CREATININE: 0.75 mg/dL
  GLUCOSE: 177.33 mg/dL
  PHOSPHORUS: 9.72 mg/dL
  POTASSIUM: 6.18 MEQ/L
  SODIUM: 150.5 MEQ/L
  TOTAL BILIRUBIN: 0.68 mg/dL
  TOTAL PROTEIN: 6.55 G/DL
[3]
  BASOPHIL: 0%
  EOSINOPHIL: 0%
  ERYTHROCYTE COUNT: 5.63 x10E6/uL
  HEMATOCRIT: 33.93%
  HEMOGLOBIN: 13.5 G/DL
  LEUKOCYTE COUNT: 12.83 x10E3/uL
  LYMPHOCYTE: 81%
  MEAN CORPUSCULAR HEMOGLOBIN: 23.97 pg
  MEAN CORPUSCULAR HEMOGLOBIN CONCENTRATION: 39.8 G/DL
  MEAN CORPUSCULAR VOLUME: 60.23 fL
  MONOCYTE: 2.67%
  NEUTROPHIL: 16.33%
  PLATELET COUNT: 1220 x10E3/uL
  ALANINE AMINOTRANSFERASE: 34.67 u/L
  ALBUMIN: 3.8 G/DL
  ALKALINE PHOSPHATASE: 289.67 u/L
  ASPARTATE AMINOTRANSFERASE: 61.67 u/L
  BLOOD UREA NITROGEN: 16.33 mg/dL
  CHLORIDE: 102.67 MEQ/L
  CHOLESTEROL: 78 mg/dL
  CREATINE PHOSPHOKINASE: 150.67 u/L
  CREATININE: 0.67 mg/dL
  GLUCOSE: 178 mg/dL
  PHOSPHORUS: 11.3 mg/dL
  POTASSIUM: 6.67 MEQ/L
  SODIUM: 148 MEQ/L
  TOTAL BILIRUBIN: 0.5 mg/dL
  TOTAL PROTEIN: 6.23 G/DL
[4]
  BASOPHIL: 0%
  EOSINOPHIL: 0%
  ERYTHROCYTE COUNT: 6.67 x10E6/uL
  HEMATOCRIT: 39.93%
  HEMOGLOBIN: 15.7 G/DL
  LEUKOCYTE COUNT: 13.37 x10E3/uL
  LYMPHOCYTE: 91.33%
  MEAN CORPUSCULAR HEMOGLOBIN: 23.6 pg
  MEAN CORPUSCULAR HEMOGLOBIN CONCENTRATION: 39.37 G/DL
  MEAN CORPUSCULAR VOLUME: 59.9 fL
  MONOCYTE: 2.33%
  NEUTROPHIL: 6.33%
  PLATELET COUNT: 1183.33 x10E3/uL
  ALANINE AMINOTRANSFERASE: 25 u/L
  ALBUMIN: 4.03 G/DL
  ALKALINE PHOSPHATASE: 323.33 u/L
  ASPARTATE AMINOTRANSFERASE: 56.67 u/L
  BLOOD UREA NITROGEN: 14.33 mg/dL
  CHLORIDE: 104.33 MEQ/L
  CHOLESTEROL: 77.33 mg/dL
  CREATINE PHOSPHOKINASE: 160 u/L
  CREATININE: 0.6 mg/dL
  GLUCOSE: 169 mg/dL
  PHOSPHORUS: 10.6 mg/dL
  POTASSIUM: 6.23 MEQ/L
  SODIUM: 151 MEQ/L
  TOTAL BILIRUBIN: 0.6 mg/dL
  TOTAL PROTEIN: 6.77 G/DL
